Assay results from PMC8406801, “Naringenin Inhibits Platelet Activation and Arterial Thrombosis Through Inhibition of Phosphoinositide 3-Kinase and Cyclic Nucleotide Signaling” (Frontiers in Pharmacology, 2021).
Values joined by “and” are separate entries in the source; they are usually repeats but may differ in a detail not shown here. Equal entries are not always repeated.

Legend:
[1] = test system: Akt Ser473 phosphorylation; experiment: Immunoblotting of phospho-Akt (Ser473) in ADP-stimulated washed platelets; type: cell-based, rat; settings: single replicates; for p-Akt Ser473 / t-Akt: raw data
Procedure: For in vitro platelet aggregation, aliquots of washed platelets were preincubated with vehicle or various concentrations of naringenin for 5 min and stimulated with ADP (10 μmol/L) under stirring at 37°C for 5 min. For ex vivo platelet aggregation, PRP was incubated at 37°C for 5 min and stimulated with ADP (5 μmol/L) under stirring at 37 °C. The platelet aggregation was terminated by adding ethylenediaminetetraacetic acid (EDTA; 10 mM). Total protein was prepared using RIPA lysis buffer and protein content was determined by bicinchoninic acid (BCA) protein assay kit. Equal amounts of platelet proteins (30 μg) were separated on 10% SDS polyacrylamide gel electrophoresis (SDS-PAGE) and then transferred to poly vinylidene difluoride (PVDF) membranes and subjected to western blot. Blots were blocked with TBS-Tween 20 containing 5% BSA and probed with primary antibodies diluted in blocking solution at 4°C overnight followed by incubation with the corresponding HRP secondary antibodies. The protein bands were visualized using enhanced chemiluminescence (ECL).
FIGURE 4 Naringenin inhibits PI3K-mediated signaling in ADP-induced platelets. Washed rat platelets were preincubated without or with naringenin at 37°C for 5 min, and then stimulated with ADP (10 μmol/L) under stirring for 5 min. Platelet proteins were then extracted and analyzed by immunoblotting using PI3Kp110β antibody (A) and phospho-specific antibodies such as Akt^Ser473 (B), Akt^Thr308 (C), ERK1/2^Thr202/Tyr204 (D) and GSK3β^Ser9 (E). Total level of GAPDH was measured on each sample as a loading control. The blots shown are representative of three separate experiments. The relative protein expression levels were quantified by ImageJ 1.47v software. The level of relative protein expression obtained with vehicle control (0 μM) was taken as 1. R represents the level of relative protein expression in resting platelets. Data are expressed as means ± SD (n = 3). *p < 0.05, **p < 0.01, ***p < 0.001 compared with the vehicle control group.
FIGURE 5 Effects of naringenin combined with PI3K pan inhibitor LY294002 on platelet aggregation and Akt phosphorylation. Washed rat platelets were preincubated with naringenin (200 μmol/L) alone, the PI3K pan inhibitor LY294002 (5 μmol/L) alone or both for 5 min prior to ADP (10 μmol/L) activation. After stimulation with ADP, platelet aggregation was quantified and expressed as a percentage (A). Data are expressed as means ± SD (n = 6). ***p < 0.001 compared with the ADP-treated group, ^### p < 0.001 compared with naringenin alone or LY294002 alone. Platelet proteins were then extracted and specific antibodies were used to measure the level of total and phosphorylated Akt (B). The blots shown are representative of three separate experiments. The relative protein expression levels were quantified by ImageJ 1.47v software. The level of phosphorylation obtained in the ADP-treated group was taken as 1. Data are expressed as means ± SD (n = 3). ***p < 0.001 compared with the ADP-treated group, ^### p < 0.001 compared with naringenin alone or LY294002 alone.

cGMP = experiment: Measurement of cGMP in washed platelets (ELISA); type: cell-based, rat; settings: single replicates
Procedure: Washed platelets were preincubated with vehicle or various concentrations of naringenin in the presence of 2 mM CaCl2 at 37°C for 5 min and then stimulated with ADP (10 μM) for 5 min for platelet aggregation. The reaction was terminated by adding EDTA (10 mM). The platelets were boiled for 5 min at 100 °C followed by centrifugation at 13,000 × g for 5 min cAMP and cGMP levels in the supernatant were measured using cAMP or cGMP enzyme immunoassay kits (Cayman Chemicals, Ann Arbor, MI, United States).
FIGURE 6 Naringenin elevates platelet cGMP levels and inhibits phosphodiesterase activity. The levels of cAMP (A) and cGMP (B) in washed platelets preincubated with vehicle or naringenin (100, 200, 400, and 800 μmol/L) were determined after stimulation with ADP (10 μmol/L) using ELISA kits. Similarly, the levels of cAMP (C) and cGMP (D) were determined in resting platelets incubated with naringenin (200, 400, and 800 μmol/L) or vehicle for 5 min. R represents the levels of cAMP or cGMP in resting platelets. Data are expressed as means ± SD (n = 4). *p < 0.05, ***p < 0.001 compared with the vehicle control group. The effects of naringenin on phosphodiesterase activity were measured by HPLC on the hydrolysis of cAMP (E) and cGMP (F). The level of phosphodiesterase activity obtained with vehicle control (0 μM) was taken as 100%. Data are expressed as means ± SD (n = 3). *p < 0.05, ***p < 0.001 compared with the vehicle control group.

[2] = Figure 5B: ADP 10 μM, naringenin 200 μM alone

`O=C1C[C@@H](c2ccc(O)cc2)Oc2cc(O)cc(O)c21` [Naringenin] was tested, and the “p-Akt Ser473 / t-Akt” value ([1]; ADP 10 μmol/L, 100 μM) was 0.1822 and 0.1825 and 0.1171, the “p-Akt Ser473 / t-Akt (Fold to ADP only)” value ([1]; ADP 10 μmol/L, 100 μM) was 0.4309 Fold to ADP only and 0.4315 Fold to ADP only and 0.2769 Fold to ADP only and the “p-Akt Ser473 / t-Akt” value ([1]; ADP 10 μmol/L, 200 μM) was 0.1611 and 0.1671 and 0.0697. The “p-Akt Ser473 / t-Akt (Fold to ADP only)” value ([1]; ADP 10 μmol/L, 200 μM) was 0.3810 Fold to ADP only and 0.3953 Fold to ADP only and 0.1648 Fold to ADP only, the “p-Akt Ser473 / t-Akt” value ([1]; ADP 10 μmol/L, 400 μM) was 0.1761 and 0.0969 and 0.0748 and the “p-Akt Ser473 / t-Akt (Fold to ADP only)” value ([1]; ADP 10 μmol/L, 400 μM) was 0.4165 Fold to ADP only and 0.2292 Fold to ADP only and 0.1768 Fold to ADP only. The “p-Akt Ser473 / t-Akt” value ([1]; ADP 10 μmol/L, 800 μM) was 0.0725 and 0.0226 and 0.0288, the “p-Akt Ser473 / t-Akt (Fold to ADP only)” value ([1]; ADP 10 μmol/L, 800 μM) was 0.1714 Fold to ADP only and 0.0534 Fold to ADP only and 0.0681 Fold to ADP only and the “p-Akt Ser473 / t-Akt” value [1, 2] was 0.5270 and 0.4157 and 0.3312. The “p-Akt Ser473 / t-Akt (Fold to ADP only)” value [1, 2] was 0.6055 Fold to ADP only and 0.4777 Fold to ADP only and 0.3805 Fold to ADP only, the “cGMP release” value (cGMP; ADP 10 μmol/L-stimulated platelets, 100 μM) was 24.01 pmol/mL and 25.36 pmol/mL and 20.40 pmol/mL and 17.36 pmol/mL and the “cGMP release” value (cGMP; ADP 10 μmol/L-stimulated platelets, 200 μM) was 33.37 pmol/mL and 25.13 pmol/mL and 28.27 pmol/mL and 30.16 pmol/mL. The “cGMP release” value (cGMP; ADP 10 μmol/L-stimulated platelets, 400 μM) was 35.44 pmol/mL and 31.24 pmol/mL and 34.51 pmol/mL and 37.74 pmol/mL, the “cGMP release” value (cGMP; ADP 10 μmol/L-stimulated platelets, 800 μM) was 43.44 pmol/mL and 33.82 pmol/mL and 49.35 pmol/mL and 41.72 pmol/mL and the “cGMP release” value (cGMP; resting platelets, 200 μM, 5 min) was 32.45 pmol/mL and 25.29 pmol/mL and 28.34 pmol/mL and 23.70 pmol/mL. For the same compound, the “cGMP release” value (cGMP; resting platelets, 400 μM, 5 min) was 30.89 pmol/mL and 30.12 pmol/mL and 36.90 pmol/mL and 24.38 pmol/mL and the “cGMP release” value (cGMP; resting platelets, 800 μM, 5 min) was 36.72 pmol/mL and 44.35 pmol/mL and 55.79 pmol/mL and 49.00 pmol/mL.
